Common to all, as to conditions: Homo sapiens
Assay [1] deals with A549. The assay can be described thus: Inhibitory concentration (resynthesized pure material) against TNF-alpha induced apoptosis of A549 cells. The assay is classed as functional, cell-based.
The test system of assay [2] is A549. The assay is described as follows: Inhibitory concentration (solid phase) against TNF-alpha induced apoptosis of A549 cells. The assay is classed as functional, cell-based.
The test system of assay [3] is A549. The assay is described as follows: Inhibitory concentration (resynthesized pure material) against TNF-alpha induced apoptosis of A549 cells at 20 uM. The assay is classed as functional.

pIC50: −log10 of the molar value.

In the assay with A549 [1], `CCCCCN(CCCCC)C(=O)[C@@H]1C[C@H](Oc2ccc(C[C@H](NC(=O)C(CC)CC)C(N)=O)cc2)CN1C(=O)c1cnc2ccccc2c1` gave a pIC50 of 5.00. On to `CCCCCN(CCCCC)C(=O)[C@@H]1C[C@H](Oc2ccc(C[C@H](NC(=O)c3cnc4ccccc4c3)C(N)=O)cc2)CN1C(=O)c1cnc2ccccc2c1`, for which the pIC50 was 4.81 in the assay with A549 [2] and 4.89 in the assay with A549 [1].

On to `CCCCCN(CCCCC)C(=O)[C@@H]1C[C@H](Oc2ccc(C[C@H](NC(=O)Cc3ccccc3)C(N)=O)cc2)CN1C(=O)c1cnc2ccccc2c1`, for which the negative logarithm of the IC50 (pIC50) in the assay with A549 [2] was 4.95; in the assay with A549 [1] it was 5.09. In turn, `CCCCCN(CCCCC)C(=O)[C@@H]1C[C@H](Oc2ccc(C[C@H](NC(=O)CC)C(N)=O)cc2)CN1C(=O)c1cnc2ccccc2c1` had an inhibition at 20 µM with A549 [3] of 35%.

For orientation: pIC50 means the negative decadic logarithm of the IC50, by convention in mol/L. By inhibition is commonly meant the percentage by which the read-out fell short of the control.
